# Laboratory results taken from ChEMBL document CHEMBL5584255, “Synthesis and antibacterial medicinal evaluation of carbothioamido hydrazonyl thiazolylquinolone with multitargeting antimicrobial potential to combat increasingly global resistance” (Eur J Med Chem, 2024).
# Activity calls are given as the source filed them. The rule behind the calls is not given here.
# Columns and labels:
# Type in all cases: functional
# Acinetobacter baumannii = test: Antibacterial activity against Acinetobacter baumannii by microbroth dilution method
# Staphylococcus aureus [1] = test: Antibacterial activity against Staphylococcus aureus ATCC 29213 by microbroth dilution method
# Pseudomonas aeruginosa [2] = test: Antibacterial activity against Pseudomonas aeruginosa ATCC 27853 by microbroth dilution method
# Pseudomonas aeruginosa [3] = test: Antibacterial activity against Pseudomonas aeruginosa by microbroth dilution method
# Staphylococcus aureus [4] = test: Antibacterial activity against drug-resistant Staphylococcus aureus by microbroth dilution method
# Escherichia coli [5] = test: Antibacterial activity against drug-resistant Escherichia coli by microbroth dilution method
# Escherichia coli [6] = test: Antibacterial activity against Escherichia coli ATCC 25922 by microbroth dilution method
# Staphylococcus aureus [7] = test: Induction of resistance development in Staphylococcus aureus measured after 4 passages
# Enterococcus faecalis = test: Antibacterial activity against drug-resistant Enterococcus faecalis by microbroth dilution method
# Staphylococcus aureus [8] = test: Antibacterial activity against methicillin-resistant Staphylococcus aureus N315 by microbroth dilution method
# Klebsiella pneumoniae = test: Antibacterial activity against Klebsiella pneumoniae by microbroth dilution method
# Staphylococcus aureus [9] = test: Antibacterial activity against Staphylococcus aureus ATCC 25923 by microbroth dilution method
# Candida albicans [10] = test: Antifungal activity against drug-resistant Candida albicans
# Aspergillus fumigatus = test: Antifungal activity against Aspergillus fumigatus
# Candida parapsilosis = test: Antifungal activity against Candida parapsilosis ATCC 22019; settings: Lodderomyces parapsilosis
# Candida tropicalis = test: Antifungal activity against drug-resistant Candida tropicalis
# Candida albicans [11] = test: Antifungal activity against Candida albicans ATCC 90023
Compound,MIC (Acinetobacter baumannii),MIC (Staphylococcus aureus [1]),MIC (Pseudomonas aeruginosa [2]),MIC (Pseudomonas aeruginosa [3]),MIC (Staphylococcus aureus [4]),MIC (Escherichia coli [5]),MIC (Escherichia coli [6]),Activity (Staphylococcus aureus [7]),MIC (Enterococcus faecalis),MIC (Staphylococcus aureus [8]),MIC (Klebsiella pneumoniae),MIC (Staphylococcus aureus [9]),MIC (Candida albicans [10]),MIC (Aspergillus fumigatus),MIC (Candida parapsilosis),MIC (Candida tropicalis),MIC (Candida albicans [11])
CCn1cc(C(=O)O)c(=O)c2cc(F)c(N3CCNCC3)cc21 [NORFLOXACIN],802 µM,3 µM,50 µM,1600 µM,25 µM,1600 µM,25 µM,inactive,802 µM,25 µM,802 µM,2 µM,–,–,–,–,–
CC(=O)Cn1cc(-c2csc(C)n2)c(=O)c2cc(F)cc(F)c21,766 µM,1530 µM,1530 µM,1530 µM,1530 µM,1530 µM,1530 µM,–,1530 µM,1530 µM,383 µM,1530 µM,1530 µM,383 µM,1530 µM,1530 µM,766 µM
C/C(Cn1cc(-c2csc(C)n2)c(=O)c2cc(F)cc(F)c21)=N\NC(N)=S,629 µM,629 µM,629 µM,629 µM,1260 µM,1260 µM,1260 µM,–,1260 µM,1260 µM,314 µM,1260 µM,1260 µM,629 µM,157 µM,1260 µM,1260 µM
CCOC(=O)c1cn(C/C(C)=N/NC(N)=S)c2cc(F)c(F)cc2c1=O,335 µM,335 µM,335 µM,670 µM,670 µM,670 µM,670 µM,–,335 µM,1340 µM,670 µM,670 µM,1340 µM,670 µM,335 µM,670 µM,670 µM
CC(=O)Cn1cc(C(C)=O)c(=O)c2cc(F)c(Cl)cc21,868 µM,1740 µM,434 µM,434 µM,1740 µM,868 µM,868 µM,–,868 µM,868 µM,868 µM,868 µM,1740 µM,868 µM,217 µM,1740 µM,868 µM
CC(=O)Cn1cc(-c2csc(C)n2)c(=O)c2cc(F)c(F)cc21,1530 µM,766 µM,1530 µM,1530 µM,766 µM,1530 µM,1530 µM,–,1530 µM,1530 µM,766 µM,766 µM,1530 µM,766 µM,1530 µM,766 µM,766 µM
CC(=O)Cn1cc(-c2csc(C)n2)c(=O)c2cccc(F)c21,405 µM,810 µM,405 µM,1620 µM,810 µM,810 µM,810 µM,–,810 µM,810 µM,1620 µM,405 µM,810 µM,1620 µM,405 µM,405 µM,810 µM
